Experimental findings from US8906906B2, “Viral replication inhibitors” (Katholieke Universiteit Leuven, priority 2009, dated 2014) are described below.

Molecules are shown by their SMILES. Some results are limits rather than exact numbers.

One data set concerns HIV (MT4-IIIB). As to the kind of experiment: Anti-HIV activity: inhibition of HIV-induced cytopathogenic effect in MT-4 cells (MTT). It counts as cell-based. The settings on record: Human immunodeficiency virus 1, IIIB.
A short description of data set [1]: Cytotoxicity in mock-infected MT-4 cells (MTT). It counts as cell-based. Particulars: human, read-out: CC50 in MT4-IIIB (μm). As to the method:
A rapid and automated assay procedure was used for the in vitro evaluation of anti-HIV agents. An HTLV-1 transformed T4-cell line MT-4, which was previously shown to be highly susceptible to and permissive for HIV infection, served as the target cell line. Inhibition of the HIV-induced cytopathogenic effect was used as the end point. The viability of both HIV-and mock-infected cells was assessed spectrophotometrically via in situ reduction of 3-(4,5-dimethylthiazol-2-yl)-2,5-diphenyltetrazolium bromide (MTT). The 50% cytotoxic concentration (CC50 in μg/ml) was defined as the concentration of compound that reduced the absorbance of the mock-infected control sample by 50%. The percent protection achieved by the compound in HIV-infected cells was calculated by the following formula: […]
Examples of inhibition of cell proliferation by particular compounds of formula (I) can be found by looking at the respective CC50 values in the MT-4 cell line.
Cells: MT-4 cells (Miyoshi et al., 1982) were grown and maintained in RPMI 1640 medium supplemented with 10% heat-inactivated fetal calf serum, 2 mM I-glutamine, 0.1% sodium bicarbonate, and 20 æg of gentamicin per ml.

Data set [2] concerns the target T1, His6-tagged HIV-1 integrase / flag-LEDGF/p75 interaction (Human immunodeficiency virus type 1 group M subtype B, UniProt P04585).
T1 construct: His6-tagged HIV-1 integrase; made in house
As to the kind of experiment: AlphaScreen assay of LEDGF-integrase interaction inhibition. It counts as binding. Particulars: compounds tested from 0.1 up to 100 μM. As to the method: Alphascreen Assay to Measure the LEDGF-Integrase Interaction Inhibitory Activity of Compounds of the Invention
The AlphaScreen assay was performed according to the manufacturer's protocol (Perkin Elmer, Benelux). Reactions were performed in 25 μl final volume in 384-well Optiwell™ microtiter plates (Perkin Elmer). The reaction buffer contained 25 mM Tris-HCl (pH 7.4), 150 mM NaCl, 1 mM MgCl2, 0.01% (v/v) Tween-20 and 0.1% (w/v) bovine serum albumin. His6-tagged integrase (300 nM final concentration) was incubated with the compounds for 30 min at 4° C. The compounds were added at varying concentrations spanning a wide range from 0.1 up to 100 μM. Afterwards 100 nM flag-LEDGF/p75 was added and incubation was prolonged for an additional hour at 4° C. Subsequently 5 μl of Ni-chelate-coated acceptor beads and 5 μl anti-flag donor beads were added to a final concentration of 20 μg/ml of both beads. Proteins and beads were incubated for 1 h at 30° C. in order to allow association to occur. Exposure of the reaction to direct light was omitted as much as possible and the emission of light from the acceptor beads was measured in the EnVision plate reader (Perkin Elmer, Benelux) and analyzed using the EnVision manager software. IN/DNA binding was analyzed in a similar setting using His6-tagged integrase (1 μM final concentration) and an oligodeoxynucleotide mimicking the IN ELISA oligonucleotide substrate (30 nM final concentration). Counterscreens with JPO2 or PogZ, respectively, were essentially performed as described previously.
Expression and purification of recombinant proteins: His6-tagged HIV-1 integrase, 3×flag-tagged LEDGF/p75, MBP-JPO2 and MBP-PogZ were purified for AlphaScreen applications as described previously 23,25,56.

`CCCC(C(=O)O)c1c(C)nc(N2CCCC(C)C2)nc1-c1ccc(C)cc1` (stereo not drawn) [cpd 40]: the EC50 in the data set on HIV (MT4-IIIB) was 24.6 µM. The CC50 in data set [1] came out at 120 µM. This compound also had an IC50 in data set [2] of 25.1 µM.

`CCCC(C(=O)O)c1c(C)nc(N2CCCN(CC)CC2)nc1-c1ccc(C)cc1` (stereo not drawn) [cpd 56]: in the data set on HIV (MT4-IIIB), the EC50 amounted to 101 µM. The CC50 in data set [1] is above 250 µM. Also, inhibition in data set [2] was half-maximal at 73.8 µM (IC50).

Consider `CCCC(C(=O)O)c1c(C)nc(N2CCc3ccccc32)nc1-c1ccc(C)cc1` (stereo not drawn) [cpd 58], for which the EC50 in the data set on HIV (MT4-IIIB) was found to be 2.91 µM. Further, the CC50 in data set [1] turned out to be 38.7 µM. The compound further displayed an IC50 in data set [2] of 17.9 µM.

In turn, `CCCC(C(=O)O)c1c(C)nc(-c2ccccc2)nc1N1CCCCC1` (stereo not drawn) [cpd 60] gave an EC50 in the data set on HIV (MT4-IIIB) of 13.2 µM. The half-maximal cytotoxic concentration (CC50) in data set [1] came out at 61 µM. For the same compound, in data set [2], half-maximal inhibition (IC50) was put at 4.71 µM.

On to `CCCC(C(=O)O)c1c(C)nc(-c2ccccc2)nc1N1CCCCCC1` (stereo not drawn) [cpd 62], for which the EC50 in the data set with HIV (MT4-IIIB) stood at 29.8 µM. The CC50 in data set [1] turned out to be 131 µM. This compound also had an IC50 in data set [2] of 6.71 µM.

On to `CCCC(C(=O)O)c1c(C)nc(-c2ccccc2)nc1-c1ccc2c(c1)CCO2` (stereo not drawn) [cpd 70], for which, in the data set on HIV (MT4-IIIB), the EC50 turned out to be 42.1 µM. For the same compound, in data set [1], the CC50 amounted to 90 µM. Further, half-maximal inhibition in data set [2] (IC50) required 14.9 µM.

Consider `CCCC(C(=O)O)c1c(C)nc(-c2ccccc2)nc1-c1ccc2occc2c1` (stereo not drawn) [cpd 72], for which the EC50 in the data set on HIV (MT4-IIIB) came out at 46.3 µM. For the same compound, the CC50 in data set [1] was 110 µM. This compound yielded an IC50 in data set [2] of 14.7 µM.

Regarding `CCCC(C(=O)O)c1c(C)nc(-c2ccccc2)nc1-c1ccc(Cl)cc1F` (stereo not drawn) [cpd 94], the midpoint of the response in the data set with HIV (MT4-IIIB), the EC50, lay at 19 µM. Besides, the CC50 in data set [1] was 81 µM. The compound also came in with an IC50 in data set [2] of 7.25 µM.

As for `CCCC(C(=O)O)c1c(C)nc(-c2ccccc2)nc1-c1ccc(C)cc1F` (stereo not drawn) [cpd 98], the EC50 in the data set on HIV (MT4-IIIB) is 35.9 µM. Further, the CC50 in data set [1] came to 113 µM. Moreover, it took 13.5 µM to reach half-maximal inhibition in data set [2] (IC50).

As for `CCCC(C(=O)O)c1c(C)nc(-c2ccccc2)nc1-c1ccc(Cl)cc1` (stereo not drawn) [cpd 102], the midpoint of the response in the data set on HIV (MT4-IIIB), the EC50, lay at 13.4 µM. Further, the CC50 in data set [1] worked out at 143 µM. This compound showed a half-inhibitory concentration (IC50) in data set [2] of 13.4 µM.

Consider `CCCC(C(=O)O)c1c(C)nc(-c2ccccc2)nc1-c1ccc(Cl)cc1O` (stereo not drawn) [cpd 111], for which, in the data set with HIV (MT4-IIIB), a half-maximal response (EC50) required 26.4 µM. In addition, in data set [1], the CC50 was determined as 97 µM. In data set [2], this compound yielded a 50% inhibitory concentration (IC50) of 1.97 µM.

Compound `CCCC(C(=O)O)c1c(C)nc(-c2ccccc2)nc1-c1ccc(C)cc1O` (stereo not drawn) [cpd 119] gave an EC50 in the data set on HIV (MT4-IIIB) of 29.4 µM. Moreover, the CC50 in data set [1] was 120 µM. In addition, in data set [2], the IC50 was determined as 21.9 µM.

In the case of `COCCC(C(=O)O)c1c(C)nc(N2CCCCC2)nc1-c1ccc(C)cc1` (stereo not drawn) [cpd 122], a half-maximal response in the data set on HIV (MT4-IIIB) (EC50) required 21.5 µM. Moreover, the CC50 in data set [1] was above 250 µM. Moreover, the IC50 in data set [2] stood at 59.7 µM.

Regarding `Cc1ccc(-c2nc(N3CCCCC3)nc(C)c2C(CCCC(F)(F)F)C(=O)O)cc1` (stereo not drawn) [cpd 124], the 50% effective concentration (EC50) in the data set on HIV (MT4-IIIB) worked out at 5.3 µM. For the same compound, the CC50 in data set [1] was 124 µM. This compound also registered an IC50 in data set [2] of 19.7 µM.

In the case of `CCCC(C(=O)O)c1c(C)nc(N2CCCCC2)nc1-c1ccc(F)cc1F` (stereo not drawn) [cpd 130], the concentration for a half-maximal effect (EC50) in the data set on HIV (MT4-IIIB) came out at 22.7 µM. In data set [1], the CC50 is 99 µM. In data set [2], this compound registered an IC50 of 17.4 µM.

In the case of `CCCC(C(=O)O)c1c(C)nc(N2CCCCC2)nc1-c1ccc(C)cc1C` (stereo not drawn) [cpd 132], in the data set on HIV (MT4-IIIB), the EC50 stood at 30.2 µM. Besides, the CC50 in data set [1] turned out to be 84.5 µM. For the same compound, half-maximal inhibition in data set [2] (IC50) was put at 22.9 µM.

For the compound `CCCC(C(=O)O)c1c(C)nc(N2CCCCC2)nc1-c1ccc(OC)cc1F` (stereo not drawn) [cpd 136], the EC50 with HIV (MT4-IIIB) was determined as 49 µM. Further, in data set [1], the CC50 was found to be 127 µM. Further, in data set [2], the IC50 worked out at 20.7 µM.

In the data set with HIV (MT4-IIIB), `CCCC(C(=O)O)c1c(C)nc(N2CCCCC2)nc1-c1ccc(C)cc1Cl` (stereo not drawn) [cpd 144] gave an EC50 of 7.93 µM. In addition, in data set [1], the CC50 came to 72.5 µM. In addition, inhibition in data set [2] was half-maximal at 5.92 µM (IC50).

In turn, `CCCC(C(=O)O)c1c(C)nc(N2CCCCC2)nc1-c1ccc(Cl)cc1F` (stereo not drawn) [cpd 146] gave an EC50 with HIV (MT4-IIIB) of 9.38 µM. In data set [1], the CC50 came to 72 µM. For the same compound, the midpoint of inhibition in data set [2], the IC50, lay at 10.8 µM.

In the case of `CCCC(C(=O)O)c1c(C)nc(N2CCCCC2)nc1N1CCCCC1` (stereo not drawn) [cpd 148], in the data set with HIV (MT4-IIIB), the response was half-maximal at 18.1 µM (EC50). The CC50 in data set [1] came out at 138 µM. The compound further returned an IC50 in data set [2] of 34.1 µM.

Take `Cc1ccc(-c2nc(N3CCCCC3)nc(C)c2C(CC(C)(C)C)C(=O)O)cc1` (stereo not drawn) [cpd 152]: in the data set on HIV (MT4-IIIB), the EC50 was found to be 3.48 µM. The CC50 in data set [1] was found to be 72 µM. Half-maximal inhibition in data set [2] (IC50) was put at 6.9 µM.
